Details of data set [1]: method as in earlier work. The note with it: cited from earlier work.
The target of data set [2] is T1, PvNMT (Plasmodium vivax, UniProt A5K1A2).
T1 sequence (A5K1A2 1-410): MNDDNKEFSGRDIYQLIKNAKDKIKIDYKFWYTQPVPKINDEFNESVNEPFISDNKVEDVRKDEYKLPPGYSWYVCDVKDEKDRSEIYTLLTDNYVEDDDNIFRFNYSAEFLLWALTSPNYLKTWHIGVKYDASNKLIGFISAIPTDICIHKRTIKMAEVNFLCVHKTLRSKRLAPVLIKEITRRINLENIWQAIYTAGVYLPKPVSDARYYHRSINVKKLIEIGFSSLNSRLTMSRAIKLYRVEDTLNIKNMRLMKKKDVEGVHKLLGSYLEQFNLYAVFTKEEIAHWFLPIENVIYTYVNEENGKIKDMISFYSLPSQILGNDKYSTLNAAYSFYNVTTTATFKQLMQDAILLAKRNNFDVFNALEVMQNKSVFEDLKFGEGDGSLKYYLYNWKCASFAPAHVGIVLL
In words: Fluorogenic NMT inhibition assay, PvNMT. It is filed as biochemical. The conditions noted are these: recombinant enzyme; mean of duplicate or triplicate experiments. From the text: (§1) 2-Methylimidazolyl analogues were synthesized building on the hypothesis that 2-methylimidazole (pK a ∼ 7.9)[18] is a reasonable mimetic for N-terminal Gly in the peptide substrate (pK a ∼ 8.0).[19] To cover a range of basicity, imidazolyl (pK a ∼ 7.0) and amine analogues (pK a ∼ 10.0) were also synthesized, each exploring a range of chain lengths (n) (Table 1). To probe versatility at the C-terminus, primary amides, carboxylic acids, 2-cyclohexylethyl and 2-(1-cyclohexenyl)ethyl amides were incorporated. Using a previously reported fluorogenic assay,[20] inhibitors were tested against the parasitic enzymes and HsNMT1 in order to explore their selectivity against a relevant host enzyme. […] Further reduction of the chain length (11 and 12, n = 8 and 7, respectively) led to loss of detectable activity against Plasmodium NMTs and significant loss of activity against LdNMT and HsNMT1.

For data set [3], the target named is T1, PvNMT. Kind of data set: Kinetic assay and Lineweaver-Burk plot, competitiveness of compound 10. It is filed as biochemical. As for the experimental part: Unexpectedly, the electron maps indicated a mixture of ligand structures such that ∼20% of the electron density represents a N-myristoylated 10 product complex with the CoA by-product in LmNMT (Fig. 2D). This is the only structural evidence for a product complex in any N-myristoyltransferase, and captures and supports the proposed mechanism of action of NMT just prior to regeneration of the active enzyme. Kinetic experiments were performed to study 10 both as a potential substrate and as an NMT inhibitor. […] The N-myristoylation of 10 observed above therefore presumably occurs within the crystal where all reagents are present at high effective concentrations, and turnover is blocked by limited egress of products. […]
3. Kinetic studies of Compound 10. […]
1 / [Sub s tr ate] Rate / [Su b s tr ate]
No inhibitor 0.6 μM 1.2 μM 2.4 μM
Figure S3: Kinetic assay and Lineweaver-Burk plot studying the competitiveness of
(§2) [Substrate] (µM) [S b[Substrate] (µM) tt ]

For a further data set, the system named is LdNMT. Kind of data set: Fluorogenic NMT inhibition assay, LdNMT. It is filed as biochemical, L. donovani.
Excerpt: as §1

Another data set relates to Leishmania NMT. In words: Substrate characteristics in Leishmania NMT. It is filed as biochemical. Here is the method: Unexpectedly, the electron maps indicated a mixture of ligand structures such that ∼20% of the electron density represents a N-myristoylated 10 product complex with the CoA by-product in LmNMT (Fig. 2D). This is the only structural evidence for a product complex in any N-myristoyltransferase, and captures and supports the proposed mechanism of action of NMT just prior to regeneration of the active enzyme. Kinetic experiments were performed to study 10 both as a potential substrate and as an NMT inhibitor. […] The N-myristoylation of 10 observed above therefore presumably occurs within the crystal where all reagents are present at high effective concentrations, and turnover is blocked by limited egress of products.
To probe the degree to which 10 acts as a true peptidomimetic, we investigated the potential to switch from inhibitor to a peptidomimetic substrate. […] In native NMT substrates, N-terminal Gly is preferred to the exclusion of all other residues, with relatively non-sterically demanding residues such as alanine. […]
as §2
Hs pp60src(2-9) Compound 10 Compound 27 Compound 28
Figure S4: Substrate characteristics of H. sapiens p60src(2-16), compound 10 and modified
inhibitors 27 and 28 in Leishmania NMT.

The next data set deals with T2, HsNMT1 (Homo sapiens, UniProt P30419).
T2 sequence (P30419 1-496): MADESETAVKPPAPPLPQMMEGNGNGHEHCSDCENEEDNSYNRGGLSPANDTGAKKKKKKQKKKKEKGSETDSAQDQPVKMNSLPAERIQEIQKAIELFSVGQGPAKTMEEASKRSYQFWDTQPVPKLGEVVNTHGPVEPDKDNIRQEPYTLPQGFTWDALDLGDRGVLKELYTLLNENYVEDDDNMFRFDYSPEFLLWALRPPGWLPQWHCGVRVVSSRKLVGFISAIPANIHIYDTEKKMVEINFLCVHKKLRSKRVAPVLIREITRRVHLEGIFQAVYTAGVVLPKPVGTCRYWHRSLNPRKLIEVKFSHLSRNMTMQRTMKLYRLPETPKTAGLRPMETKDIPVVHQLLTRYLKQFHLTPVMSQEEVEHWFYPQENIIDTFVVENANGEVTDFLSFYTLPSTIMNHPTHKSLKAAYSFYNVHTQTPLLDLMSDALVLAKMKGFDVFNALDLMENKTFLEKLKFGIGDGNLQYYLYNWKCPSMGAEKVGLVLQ
Kind of data set: Fluorogenic NMT inhibition assay, HsNMT1. It is filed as biochemical, H. sapiens. The note with it: mean of duplicate or triplicate experiments. From the text: 2-Methylimidazolyl analogues were synthesized building on the hypothesis that 2-methylimidazole (pK a ∼ 7.9)[18] is a reasonable mimetic for N-terminal Gly in the peptide substrate (pK a ∼ 8.0).[19] To cover a range of basicity, imidazolyl (pK a ∼ 7.0) and amine analogues (pK a ∼ 10.0) were also synthesized, each exploring a range of chain lengths (n) (Table 1). To probe versatility at the C-terminus, primary amides, carboxylic acids, 2-cyclohexylethyl and 2-(1-cyclohexenyl)ethyl amides were incorporated. Using a previously reported fluorogenic assay,[20] inhibitors were tested against the parasitic enzymes and HsNMT1 in order to explore their selectivity against a relevant host enzyme.

A further data set deals with T3, PfNMT (Plasmodium falciparum, UniProt Q9U419).
T3 sequence (Q9U419 1-410): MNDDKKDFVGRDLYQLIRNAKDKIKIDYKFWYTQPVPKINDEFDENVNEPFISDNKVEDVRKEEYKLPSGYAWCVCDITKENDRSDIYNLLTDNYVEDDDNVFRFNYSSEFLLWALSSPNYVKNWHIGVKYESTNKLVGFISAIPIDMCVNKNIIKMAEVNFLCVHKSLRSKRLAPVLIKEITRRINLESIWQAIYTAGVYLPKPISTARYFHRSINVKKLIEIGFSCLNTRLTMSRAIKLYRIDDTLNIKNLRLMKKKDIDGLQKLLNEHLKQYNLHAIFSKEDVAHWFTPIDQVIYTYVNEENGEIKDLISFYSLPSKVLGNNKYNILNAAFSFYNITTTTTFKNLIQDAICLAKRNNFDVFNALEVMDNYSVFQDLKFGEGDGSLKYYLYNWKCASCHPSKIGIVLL
In words: Fluorogenic NMT inhibition assay, PfNMT. It is filed as biochemical. The conditions noted are these: recombinant enzyme; mean of duplicate or triplicate experiments.
Excerpt: as §1

The subject of the next data set is CaNMT. Also on record: method as in PMID 7783114. The note with it: read-out: KM as CaNMT substrate; cited from earlier work.

The term pKa denotes the negative logarithm of the acid dissociation constant. The term IC50 denotes the point on the concentration scale where inhibition reaches its midpoint. As a reminder, the Km is the substrate concentration at which the rate is half of its maximum.

Ends that are not written are not given here.

Turning to `Cc1ncc[nH]1` [2-methylimidazole], the pKa in data set [1] is approximately 7.9.

For `NCCCCCCCCCC(=O)N[C@@H](CO)C(=O)N[C@@H](CCCCN)C(=O)NCCC1CCCCC1` [Compound 10], the IC50 at PvNMT [2] is 680 ± 80 nM; with LdNMT (recombinant enzyme, mean of duplicate or triplicate experiments), 24 ± 3 nM; against HsNMT1, 60 ± 3 nM; at PfNMT it was 24300 ± 3400 nM. Also, the results for the “Vmax of substrate in presence of inhibitor” value at PvNMT [3] (0.6 μM compound 10), at PvNMT [3] (1.2 μM compound 10) and on PvNMT [3] (2.4 μM compound 10) were 20701.0 ± 1047.4, 19563.0 ± 1520.6 and 21120.3 ± 1651.4, respectively. Besides, on PvNMT [3] (kinetic studies, Fig. S3), the mode of inhibition result is reported as “peptide-competitive inhibitor”. Moreover, the “potency against LdNMT, fold higher than 2 (1H-imidazol-1-yl)” value in the data set with LdNMT (relative to compound 2) is “over 400 fold”. Besides, the “potency against LdNMT, fold higher than 6 (2-methyl-1H-imidazol-1-yl)” value in the data set with LdNMT (relative to compound 6) is given as more than 20 fold. Moreover, the KM as substrate entry with Leishmania NMT (Leishmania NMT) is given as “Not measurable”. Moreover, in the data set on Leishmania NMT (Leishmania NMT), the Vmax as substrate result was “Not measurable”. Besides, the substrate activity result in the data set with Leishmania NMT (compound 10 tested up to 40 μM) is given as “no substrate characteristics were detected”.

Regarding “GLYASKLS-NH2 [CaNMT octapeptide substrate]”, the Km in the data set on CaNMT was 0.6 µM.

The values above are taken from publication PMC4224572, “Peptidomimetic inhibitors of N-myristoyltransferase from human malaria and leishmaniasis parasites” (Organic & Biomolecular Chemistry, 2014).
